Data taken from ChEMBL document CHEMBL1152705, “Synthesis and promotion angiogenesis effect of chrysin derivatives coupled to NO donors” (Bioorg Med Chem Lett, 2009).
Calls of active or inactive are those of the source. No cut-off for these calls is given here.

What was measured:
Homo sapiens = species: Homo sapiens; assay: Angiogenic activity in HUVEC12 assessed as induction of cell proliferation at 10 uM after 24 hrs by MTT assay; assay type: functional
Chorioallantoic membrane = assay: Angiogenic activity in chick embryo chorioallantoic membrane at 10 uL/egg after 2 days; assay type: functional, tissue-based; details: Gallus gallus

Row | SMILES | Activity (Homo sapiens) | Activity (Chorioallantoic membrane)
1 | O=c1cc(-c2ccccc2)oc2cc(O)cc(O)c12 | Active | 
2 | O=c1cc(-c2ccccc2)oc2cc(OCCO[N+](=O)[O-])cc(O)c12 | Active | Active
3 | O=c1cc(-c2ccccc2)oc2cc(OCCCCO[N+](=O)[O-])cc(O)c12 | Active | Active
4 | O=c1cc(-c2ccccc2)oc2cc(OCCCCCCO[N+](=O)[O-])cc(O)c12 | Active | Active
